In brackets after ≈: the same amount, converted by molar mass. Entries after “also recorded” stand apart in the source; their conditions may differ.
Experiments:
[1] = system: OVCAR3 human ovarian cancer cell line; assay: Cytotoxicity assay, OVCAR3 cells; type: cell-based; settings: OVCAR-3, 72 h, read-out: IC50 toward OVCAR3 cells
[2] = system: DU145 human prostate cancer cells; settings: prostate tumor model; cited from earlier work
NF-κB p65 in HeLa cells = NF-κB p65 in HeLa cells (Homo sapiens, UniProt Q04206); assay: Enzyme-based ELISA assay for NF-κB inhibition; type: cell-based
Chain of NF-κB p65 in HeLa cells (Q04206 whole entry): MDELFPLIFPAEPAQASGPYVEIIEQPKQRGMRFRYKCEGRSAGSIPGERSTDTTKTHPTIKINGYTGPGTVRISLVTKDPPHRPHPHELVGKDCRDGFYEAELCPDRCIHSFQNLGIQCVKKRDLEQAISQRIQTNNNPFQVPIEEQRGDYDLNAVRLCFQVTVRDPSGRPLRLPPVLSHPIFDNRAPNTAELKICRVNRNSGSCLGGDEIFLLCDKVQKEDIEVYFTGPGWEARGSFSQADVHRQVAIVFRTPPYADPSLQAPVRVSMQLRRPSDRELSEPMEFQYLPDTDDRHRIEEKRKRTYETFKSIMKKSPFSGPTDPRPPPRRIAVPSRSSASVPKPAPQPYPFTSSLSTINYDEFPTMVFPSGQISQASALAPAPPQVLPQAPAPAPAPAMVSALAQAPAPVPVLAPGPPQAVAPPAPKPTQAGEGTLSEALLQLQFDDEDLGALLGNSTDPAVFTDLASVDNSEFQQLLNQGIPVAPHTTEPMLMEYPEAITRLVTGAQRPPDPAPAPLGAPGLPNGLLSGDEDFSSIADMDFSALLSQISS

[3] = Cytotoxicity assays, statements on the whole panel of cell lines; settings: human
in vitro = settings: human
[4] = system: HT-29, MDA-MB-231, MDA-MB-435 and OVCAR3 human cancer cell lines; assay: Cytotoxicity assays, statements on the whole panel of cell lines; settings: all cytotoxicity assays used
[5] = system: mitochondrial transmembrane potential (MTP) in HT-29 cells; assay: Mitochondrial transmembrane potential; type: cell-based, human
melanoma tumor = settings: cited from earlier work

Row | Structure (SMILES) | activity in the NF-κB inhibition assay (in words) (NF-κB p65 in HeLa cells) | IC50 at 72 h [3] [µM] | activity in the cytotoxicity assays (in words) [4] | activity in the MTP inhibition assay (in words) [5] | further results
1 | C[C@H]1[C@H](C)CC[C@]2(C(=O)O)CC[C@]3(C)C(=CC[C@@H]4[C@@]5(C)CC[C@H](O)C(C)(C)[C@@H]5CC[C@]43C)[C@H]12 [Compound 1, (+)-ursolic acid] | – | – | – | – | IC50 [1]: 12.9 µg/mL (≈ 28.2 µM); mouse body weight [2]: without significant decrease
2 | C=C(C)[C@@H]1CC[C@]2(C(=O)OC)CC[C@]3(C(=O)O)[C@H](CC[C@@H]4[C@@]5(C)CC[C@H](O)C(C)(C)[C@@H]5CC[C@]43C)[C@@H]12 [Compound 3, (+)-melaleucic acid 28-methyl ester] | exhibited activity | > 10 | – | – | –
3 | C=C(C)[C@@H]1CC[C@]2(C(=O)O)CC[C@]3(C(=O)O)[C@H](CC[C@@H]4[C@@]5(C)CC[C@H](O)C(C)(C)[C@@H]5CC[C@]43C)[C@@H]12 [Compound 4, (+)-melaleucic acid] | – | > 10 | – | – | –
4 | C=C(C)[C@@H]1CC[C@]2(C(=O)O)CC[C@]3(C)[C@H](CC[C@@H]4[C@@]5(C)C[C@@H](O)[C@H](O)C(C)(C)[C@@H]5CC[C@]43C)[C@@H]12 [Compound 5, (+)-alphitolic acid] | exhibited activity | > 10 | – | – | –
5 | C=C(C)[C@@H]1CC[C@]2(C(=O)O)CC[C@]3(CO)[C@H](CC[C@@H]4[C@@]5(C)CC[C@H](O)C(C)(C)[C@@H]5CC[C@]43C)[C@@H]12 [Compound 6, (+)-cylicodiscic acid] | – | > 10 | – | – | –
6 | C=C(C)[C@@H]1CC[C@]2(C(=O)O)CC[C@]3(C)[C@H](CC[C@@H]4[C@@]5(C)C[C@@H](O)[C@H](OC(=O)/C=C/c6ccc(O)cc6)C(C)(C)[C@@H]5CC[C@]43C)[C@@H]12 [Compound 7, (+)-3-O−β-trans-p−coumaroylalphitolic acid] | exhibited activity | – | – | – | IC50 at 72 h (in vitro): > 10 µM
7 | CC1(C)CC[C@]2(C(=O)O)CC[C@]3(C)C(=CC[C@@H]4[C@@]5(C)CC[C@H](O)C(C)(C)[C@@H]5CC[C@]43C)[C@@H]2C1 [Compound 8, (+)-oleanolic acid] | – | – | Neither 8 nor 9 showed activity | inactive | –
8 | C=C(C)[C@@H]1CC[C@]2(C(=O)O)CC[C@]3(C)[C@H](CC[C@@H]4[C@@]5(C)CC[C@H](O)C(C)(C)[C@@H]5CC[C@]43C)[C@@H]12 [Compound 9, (+)-betulinic acid] | – | – | Neither 8 nor 9 showed activity | same potency as 1; also recorded: active | melanoma tumor growth in vivo (melanoma tumor; mice): inhibit completely; toxicity observed in mice (melanoma tumor; mouse, in vivo): without any obvious toxicity
9 | C[C@H]1[C@H](C)CC[C@]2(CO)CC[C@]3(C)C(=CC[C@@H]4[C@@]5(C)CC[C@H](O)C(C)(C)[C@@H]5CC[C@]43C)[C@H]12 [Compound 10, (+)-uvaol] | did not show any activities | – | did not show any activities | did not show any activities | –
10 | CC1(C)CC[C@]2(CO)CC[C@]3(C)C(=CC[C@@H]4[C@@]5(C)CC[C@H](O)C(C)(C)[C@@H]5CC[C@]43C)[C@@H]2C1 [Compound 11, (+)-erythrodiol] | did not show any activities | – | did not show any activities | did not show any activities | –
11 | C=C(C)[C@@H]1CC[C@]2(CO)CC[C@]3(C)[C@H](CC[C@@H]4[C@@]5(C)CC[C@H](O)C(C)(C)[C@@H]5CC[C@]43C)[C@@H]12 [Compound 12, (+)-betulin] | exhibited activity | > 10 | did not show any activities | did not show any activities; also recorded: inactive | –
12 | C=C(C)[C@@H]1CC[C@]2(C(=O)O)CC[C@]3(C)[C@H](CC[C@@H]4[C@@]5(C)CC[C@H](OC(=O)/C=C/c6ccc(O)c(OC)c6)C(C)(C)[C@@H]5CC[C@]43C)[C@@H]12 [S13, (+)-3β-O−tram,-feruloylbetulinic acid] | exhibited activity | > 10 | – | active | –

Source: paper PMC6177235 (Bioorganic & medicinal chemistry, 2018)
